Results from publication PMC2763540 (Chemistry & biology, 2009).
Values joined by “and” are separate entries in the source; they are usually repeats but may differ in a detail not shown here. Equal entries are not always repeated. “Also recorded” adds a separate entry of the source. Where two headings read alike, the source gives them in different places.

Tests used:
[1] = system: hoiamide A-induced elevation of neuronal [Na+]i in neocortical neurons; assay type: cell-based, mouse (Swiss-Webster)
[2] = system: voltage-gated sodium channels; assay type: cell-based, mouse (Swiss-Webster)
[3] = system: neurotoxin site 2 on VGSCs; conditions: cited from earlier work
[4] = system: voltage-gated sodium channels; conditions: cited from earlier work
[5] = system: neurotoxin site 5 on VGSCs; conditions: cited from earlier work
[6] = system: neurotoxin site 2 on VGSCs; assay type: binding, mouse (Swiss-Webster)
[7] = system: neurotoxin site 2 on VGSCs; assay type: cell-based, mouse (Swiss-Webster)
[8] = system: mouse neocortical neurons

## NS(=O)(=O)c1cccc2c1c([N+](=O)[O-])cc1nc(O)c(O)nc12 [NBQX]
[1]
  effect on hoiamide A-induced Na+ influx: no effect

## C[C@]12N[C@H](Cc3ccccc31)c1ccccc12 [MK-801]
[1]
  effect on hoiamide A-induced elevation of neuronal [Na+]i: partial, but statistically significant, decrease

## CC1(C)[C@H](C(=O)O[C@H](C#N)c2cccc(Oc3ccccc3)c2)[C@@H]1C=C(Br)Br [deltamethrin]
[2]
  sodium influx when given alone: inactive alone
[1]
  effect on maximum response of hoiamide A-induced sodium influx: significantly increased the maximum response; also recorded: enhance hoiamide A-induced elevation of neuronal [Na^+]i
[3]
  effect on [3H]BTX specific binding (allosteric): dramatically increased

## NC1=N[C@H](O)[C@H]2[C@H]3O[C@]4(O)O[C@@H]([C@@H](O)[C@@]2(N1)[C@@H]4O)[C@]3(O)CO [TTX, tetrodotoxin]
[1]
  effect on hoiamide A-induced elevation of neuronal [Na+]i: eliminated the hoiamide A-induced elevation of neuronal [Na^+]i; also recorded: inhibition of hoiamide A-induced elevation of neuronal [Na^+]i

## brevetoxin 3 [PbTx-3]
[2]
  sodium influx when given alone: inactive alone
[1]
  effect on maximum response of hoiamide A-induced sodium influx: significant increase in the maximum response; also recorded: enhance hoiamide A-induced elevation of neuronal [Na^+]i

## batrachotoxin
[2]
  elevation of neuronal [Na+]i / sodium influx: rapid and concentration-dependent elevation of neuronal [Na^+]i
  maximum response, elevation of neuronal [Na+]i: greater than 60 mM
[2]; read-out: EC50 for batrachotoxin-induced elevation of neuronal [Na+]i
  EC50: 11.4 nM
[4]
  type of agonism at neurotoxin site 2: full agonist at neurotoxin site 2

## C=CC/C=C\C=C/[C@H]1O[C@H]2C[C@H]3O[C@H]4CC[C@H]5O[C@H]6C[C@@]7(C)O[C@@]8(C)[C@@H](O)C[C@H](CCCO)O[C@@H]8C[C@@H]7O[C@@H]6C[C@@H]5O[C@]4(C)C[C@]3(C)O[C@@H]2C=C[C@]1(C)O [gambierol]
[5]
  effect on PbTx-1 induced elevation of neuronal [Na+]i: inhibited the full agonist PbTx-1 induced elevation of neuronal [Na^+]i
  type of agonism at neurotoxin site 5: low efficacy partial agonist at neurotoxin site 5

## COc1ccc(C(=O)O[C@H]2CC[C@@]3(C)[C@@H]4CC[C@H]5[C@]6(O)C[C@H](O)[C@@]7(O)[C@@H](CN8C[C@@H](C)CC[C@H]8[C@@]7(C)O)[C@]6(O)C[C@@]53O[C@]24O)cc1OC [veratridine]
[6]
  inhibition of [3H]BTX specific binding: much less potent than hoiamide A; also recorded: inhibit the specific binding of [^3H]BTX to VGSCs
[6]; read-out: IC50, inhibition of [3H]BTX specific binding
  IC50: 33000 nM

## CCC[C@@H](C)[C@H](O)[C@H](C)[C@H]1OC(=O)[C@H]([C@@H](C)O)NC(=O)[C@H](C(C)C)OC(=O)[C@H](C)[C@H](O)[C@H]([C@@H](C)CC)NC(=O)[C@@]2(C)CSC(=N2)[C@@]2(C)CSC(=N2)c2csc(n2)C[C@H](OC)[C@@H]1C [hoiamide A]
[2]
  elevation of neuronal [Na+]i / sodium influx: rapid and concentration-dependent elevation of neuronal [Na^+]i; also recorded: VGSC activator; also recorded: maximum sodium influx that was less than that of the full agonist, batrachotoxin
  maximum response, elevation of neuronal [Na+]i: less than 20 mM
  relative efficacy for elevation of neuronal [Na+]i: 0.38
  type of agonism at neurotoxin site 2 on VGSCs: partial agonist at neurotoxin site 2; also recorded: partial agonism at the neurotoxin site 2 on VGSCs
[2]; read-out: EC50 for hoiamide-induced sodium influx
  EC50: 2310 nM
[6]
  inhibition of [3H]BTX specific binding: concentration-dependent inhibition of [^3H]BTX specific binding; also recorded: inhibit the specific binding of [^3H]BTX to VGSCs
[6]; read-out: IC50, inhibition of [3H]batrachotoxin binding
  IC50: 92.8 nM
[1]
  change of hoiamide A EC50 value by modulator: without altering the hoiamide A EC50 value; also recorded: no corresponding effect on the hoiamide A EC50 value
  maximum response of hoiamide A-induced sodium influx, AUC: 89.9 fluorescence x min and 141.4 fluorescence x min and 143.4 fluorescence x min
[7]
  effect on batrachotoxin-induced sodium influx (SBFI AUC): concentration-dependent reduction in batrachotoxin-induced sodium influx; also recorded: reversal of batrachotoxin (30 nM)-induced elevation of neuronal [Na^+]i
[8]
  IC50: 47.5 nM
Cancer cells
  cytotoxicity to cancer cells: modest cytotoxicity

## C=C(C=O)C[C@@H]1C[C@H](O)[C@]2(C)O[C@@H]3C[C@@H]4O[C@@H]5C[C@]6(C)O[C@]7(C)CC[C@@H]8O[C@@H]9C[C@]%10(C)O[C@@H]%11C(C)=CC(=O)O[C@H]%11C[C@H]%10O[C@H]9C[C@@H](C)[C@H]8O[C@H]7C[C@H]6O[C@H]5C/C=C\[C@H]4O[C@H]3C[C@H]2O1 [brevetoxin]
[3]
  effect on [3H]BTX specific binding (allosteric): dramatically increased
